Drawing on ChEMBL document CHEMBL1201862, “PubChem BioAssay data set” (2004), this text covers IC50 and AC50 for 14 compounds.

Active and inactive are the calls of the source. Some results are limits rather than exact numbers.

The target in one experiment is Prothrombin (Homo sapiens, UniProt P00734). The experiment is described as follows: Thrombin 1536 HTS Dose Response Confirmation. [Related pubchem assays: 1046 (Thrombin 1536 HTS; hits were confirmed in this assay)]. It counts as functional.
Experiment [1] deals with T1, DNA repair and recombination protein RAD54-like (Homo sapiens, UniProt Q92698).
T1 sequence (Q92698 whole entry): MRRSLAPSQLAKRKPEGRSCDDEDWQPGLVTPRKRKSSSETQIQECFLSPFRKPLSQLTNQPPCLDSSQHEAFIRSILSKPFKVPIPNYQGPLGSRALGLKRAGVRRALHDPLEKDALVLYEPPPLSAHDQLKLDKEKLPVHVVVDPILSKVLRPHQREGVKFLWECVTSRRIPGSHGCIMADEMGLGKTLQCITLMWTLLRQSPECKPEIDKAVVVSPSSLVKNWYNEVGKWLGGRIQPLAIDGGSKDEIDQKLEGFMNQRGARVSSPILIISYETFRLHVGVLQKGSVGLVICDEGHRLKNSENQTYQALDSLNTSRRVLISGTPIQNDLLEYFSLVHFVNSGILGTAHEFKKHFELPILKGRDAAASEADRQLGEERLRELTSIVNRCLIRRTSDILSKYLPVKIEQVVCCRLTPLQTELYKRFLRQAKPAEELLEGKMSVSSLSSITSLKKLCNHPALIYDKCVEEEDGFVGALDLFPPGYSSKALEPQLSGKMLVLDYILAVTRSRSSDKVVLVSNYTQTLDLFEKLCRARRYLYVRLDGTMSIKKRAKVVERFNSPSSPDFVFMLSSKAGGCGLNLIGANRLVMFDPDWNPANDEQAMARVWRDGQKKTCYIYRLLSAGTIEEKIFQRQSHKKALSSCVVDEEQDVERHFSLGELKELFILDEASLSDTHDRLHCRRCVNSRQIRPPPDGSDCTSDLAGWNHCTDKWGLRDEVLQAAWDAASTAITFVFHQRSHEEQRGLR
Nature of the experiment: RAD54 Holliday junction migration blockers – biochemical, fluorescence, cherry-picked samples, dose series, confirmation (AID 651657). It counts as functional.

For experiment [2], the target named is T2, Rac GTPase-activating protein 1 (Homo sapiens, UniProt Q9H0H5).
T2 sequence (Q9H0H5 whole entry): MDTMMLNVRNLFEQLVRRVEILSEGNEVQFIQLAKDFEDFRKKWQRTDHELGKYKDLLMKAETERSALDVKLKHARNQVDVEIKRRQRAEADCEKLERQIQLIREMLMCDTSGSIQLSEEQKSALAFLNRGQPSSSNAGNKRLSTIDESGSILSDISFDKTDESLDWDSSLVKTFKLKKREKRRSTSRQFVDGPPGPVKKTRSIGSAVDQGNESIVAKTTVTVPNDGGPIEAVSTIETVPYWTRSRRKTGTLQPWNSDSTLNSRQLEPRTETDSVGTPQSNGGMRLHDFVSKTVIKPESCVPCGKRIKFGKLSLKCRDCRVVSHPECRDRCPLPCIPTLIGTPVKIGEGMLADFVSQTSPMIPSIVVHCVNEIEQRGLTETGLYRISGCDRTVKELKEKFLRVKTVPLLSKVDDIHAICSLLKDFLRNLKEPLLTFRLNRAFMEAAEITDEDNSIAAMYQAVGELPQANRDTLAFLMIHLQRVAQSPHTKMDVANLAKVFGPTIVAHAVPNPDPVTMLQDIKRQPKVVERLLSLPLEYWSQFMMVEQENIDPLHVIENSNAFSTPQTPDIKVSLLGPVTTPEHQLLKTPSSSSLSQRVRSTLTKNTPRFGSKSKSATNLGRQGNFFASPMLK
The experiment is described as follows: blockers of MgcRacGAP-driven Rac1 GTP hydrolysis – biochemical, ADP Hunter fluorescence, primary and confirmatory, confirmation (AID 624330). Type of experiment: functional.

Experiment [3] addresses T3, DNA repair protein RAD52 homolog (Homo sapiens, UniProt P43351).
T3 sequence (P43351 whole entry): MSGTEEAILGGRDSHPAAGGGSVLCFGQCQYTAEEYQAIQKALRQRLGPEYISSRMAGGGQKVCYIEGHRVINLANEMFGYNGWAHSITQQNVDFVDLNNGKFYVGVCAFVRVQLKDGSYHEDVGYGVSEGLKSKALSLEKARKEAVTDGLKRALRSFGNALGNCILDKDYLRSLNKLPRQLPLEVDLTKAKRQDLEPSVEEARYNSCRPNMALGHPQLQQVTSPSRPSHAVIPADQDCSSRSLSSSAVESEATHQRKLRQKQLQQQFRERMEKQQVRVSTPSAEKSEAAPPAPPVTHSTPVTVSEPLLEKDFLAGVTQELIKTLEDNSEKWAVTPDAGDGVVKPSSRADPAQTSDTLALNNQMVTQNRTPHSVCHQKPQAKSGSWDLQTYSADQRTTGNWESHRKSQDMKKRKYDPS
Type of experiment: functional, biochemical.

Experiment [4] is described as follows: blockers of HIV-1 envelope-mediated cell-cell fusion – cherry-pick, dose response (AID 652057). It counts as functional, cell-based.
The nature of experiment [5]: blockers of HIV-1 ZM109 envelope-driven cell-cell fusion – HeLa effector, CEM target cells, luciferase, cherry-pick, dose response (AID 652058).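 Note: luciferase signal from HIV-1 Env mediated cell-cell fusion of effector and target cells.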 Type of experiment: functional, cell-based.
The nature of experiment [6]: off-target signal loss in HeLa-CEM21 co-culture – HeLa F-luc CTL cells, cherry-picked, counter-screen for HIV-1 Env fusion inhibitor project, dose response (AID 652040).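 Note: potency for signal decrease marking cytotoxic or nonspecific inhibition.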 Type of experiment: functional, cell-based.
Experiment [7] can be described thus: HIV-1 AD8 envelope cell-cell fusion blockers – cherry-pick, dose response (AID 652062).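 Note: luciferase signal from cell-cell fusion driven by HIV-1 clade B AD8 Env; potency is for inhibitors of fusion seen as a drop in luminescence.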 It counts as functional, cell-based.
For experiment [8], the target named is T4, Long-chain-fatty-acid--AMP ligase FadD28 (Mycobacterium tuberculosis, UniProt P9WQ59).
T4 sequence (P9WQ59 whole entry): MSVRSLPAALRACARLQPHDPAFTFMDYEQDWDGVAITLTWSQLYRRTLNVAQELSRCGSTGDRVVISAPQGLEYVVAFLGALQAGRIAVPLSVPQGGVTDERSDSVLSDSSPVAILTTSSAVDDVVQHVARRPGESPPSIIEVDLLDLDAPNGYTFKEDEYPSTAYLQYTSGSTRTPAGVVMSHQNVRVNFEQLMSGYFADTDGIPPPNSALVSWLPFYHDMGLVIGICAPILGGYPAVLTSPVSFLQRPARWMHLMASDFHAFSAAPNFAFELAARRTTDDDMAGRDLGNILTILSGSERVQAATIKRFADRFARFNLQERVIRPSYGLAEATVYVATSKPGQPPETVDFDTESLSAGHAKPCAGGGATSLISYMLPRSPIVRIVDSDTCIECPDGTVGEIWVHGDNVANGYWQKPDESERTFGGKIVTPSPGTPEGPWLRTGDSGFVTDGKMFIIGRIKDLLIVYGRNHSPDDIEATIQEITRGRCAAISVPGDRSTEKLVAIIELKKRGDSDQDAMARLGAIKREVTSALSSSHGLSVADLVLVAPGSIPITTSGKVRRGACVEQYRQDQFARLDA
Nature of the experiment: Fluorescence polarization aasay to screen for inhibitors that compete for the binding of FadD28 to a bisubstrate Measured in Biochemical System Using Plate Reader - 2147-01_Inhibitor_Dose_CherryPick_Activity. It counts as functional, Mycobacterium tuberculosis H37Rv.

In the next experiment the target is Genome polyprotein (dengue virus type 2, UniProt P29990). The experiment is described as follows: flavivirus cap methylation enzyme inhibition – biochemical, confirmation dose response, primary screen (AID 588689). It counts as functional.
A short description of experiment [9]: intracellular Trypanosoma cruzi inhibitors in host cells – cell-based, plate reader, cherry-pick samples, set 3, dose response (AID 651818).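 Note: compounds incubated with infected cells for about four days.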 It counts as functional.

Genome polyprotein, sequence (P29990 2492-3391 limits assumed): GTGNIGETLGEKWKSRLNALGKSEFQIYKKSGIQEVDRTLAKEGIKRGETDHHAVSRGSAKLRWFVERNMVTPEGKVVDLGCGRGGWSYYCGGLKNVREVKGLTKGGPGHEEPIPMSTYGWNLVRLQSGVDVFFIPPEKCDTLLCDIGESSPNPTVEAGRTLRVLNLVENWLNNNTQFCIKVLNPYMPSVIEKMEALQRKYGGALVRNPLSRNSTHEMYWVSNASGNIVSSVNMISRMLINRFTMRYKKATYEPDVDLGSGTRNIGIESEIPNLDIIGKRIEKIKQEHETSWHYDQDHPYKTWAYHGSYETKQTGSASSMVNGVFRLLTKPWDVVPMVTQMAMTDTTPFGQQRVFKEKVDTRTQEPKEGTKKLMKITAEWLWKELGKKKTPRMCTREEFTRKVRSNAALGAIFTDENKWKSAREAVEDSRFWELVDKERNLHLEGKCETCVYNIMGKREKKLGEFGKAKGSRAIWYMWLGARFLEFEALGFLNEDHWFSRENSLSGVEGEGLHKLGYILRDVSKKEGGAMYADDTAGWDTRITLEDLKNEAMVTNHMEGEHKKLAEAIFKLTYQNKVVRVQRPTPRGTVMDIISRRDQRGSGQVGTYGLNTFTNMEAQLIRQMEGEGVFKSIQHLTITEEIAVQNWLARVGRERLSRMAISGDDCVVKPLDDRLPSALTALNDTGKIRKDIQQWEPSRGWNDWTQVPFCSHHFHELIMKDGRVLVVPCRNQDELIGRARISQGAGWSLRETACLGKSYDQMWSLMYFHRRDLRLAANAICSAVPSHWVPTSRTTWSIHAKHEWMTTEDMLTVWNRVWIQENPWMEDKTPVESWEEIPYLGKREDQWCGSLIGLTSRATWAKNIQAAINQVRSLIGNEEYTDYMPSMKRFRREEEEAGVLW

One may read the IC50 as the concentration that gives 50% inhibition. By AC50 is commonly meant the midpoint of the concentration-response curve, whichever way the signal moves. With `CN(C)CCCNc1ncnc2sc(-c3ccccc3)cc12`, the IC50 against Prothrombin is > 50 µM (not active); in experiment [2], 29.9 µM (active). The AC50 in experiment [1] is 17.4 µM (active); in experiment [3], 14.6 µM (active).

`CO[C@H](C(=O)N(C)C[C@@H]1OCc2ccccc2-c2c(n(C)c3ccccc23)C(=O)N([C@H](C)CO)C[C@@H]1C)c1ccccc1`: the AC50 is 6.28 µM (active) in experiment [4], 10.2 µM (active) in experiment [5], 15.4 µM (active) in experiment [6] and 6.84 µM (active) in experiment [7]. Consider `N#CC1=C(N)N(c2ccccc2)C(c2ccco2)C1(C#N)C#N` (configuration not stated), for which, in experiment [8], the AC50 was > 100 µM (inactive). In the case of `O=C(O)c1[nH]c2ccccc2c1C(c1ccccc1)c1c(C(=O)O)[nH]c2ccccc12`, the IC50 on Genome polyprotein was 16.7 µM (active). The AC50 in experiment [8] was 36.5 µM (active). In the case of `COc1cccc(NC(=O)CN(C)C(=O)c2ccc(S(=O)(=O)Nc3ccccc3C)cc2)c1`, the AC50 in [8] was > 100 µM (inactive). Regarding `CCN(CC)CCN(Cc1cc2cc3c(cc2nc1O)OCCO3)C(S)=NCCCN(C)C`, the AC50 in experiment [3] was 12.9 µM (active).

`CCCC[C@H](CN(N=O)[C@@H](Cc1ccccc1)CN(C)N=O)N(CCc1ccccc1)N=O`: the AC50 in experiment [4] is 3.32 µM (active); in experiment [5], 8.46 µM (active); in [6] it was 6.02 µM (active); in experiment [7] it was 20.6 µM (active). In the case of `C[C@@]12C(=O)N(CC3CCCO3)CC(=O)N1[C@H]1c3cc(Cl)ccc3OC[C@@H]1[C@@H]2c1ccccc1` (some centres not stated), the AC50 in experiment [4] was 1.34 µM (active); in [5], 2.64 µM (active); in experiment [6], 2.05 µM (active); in experiment [7], 2.52 µM (active). As to `C[C@H](CO)N1C[C@H](C)[C@H](CN(C)C(=O)Nc2cccc3ccccc23)Oc2c(NC(=O)c3ccncc3)cccc2C1=O`, in experiment [9], the AC50 is 3.57 µM (active). For `O=C(O)COc1ccccc1-c1nc(-c2ccccc2)c(-c2ccccc2)[nH]1`, the AC50 in experiment [8] was > 100 µM (inactive). In the case of `C[C@@H]1CN([C@@H](C)CO)C(=O)c2cccc(NC(=O)C3CCCCC3)c2O[C@@H]1CN(C)Cc1ccc(C(=O)Nc2ccccc2N)cc1`, the AC50 in [9] is 1.33 µM (active).

Regarding `Cc1ccc(S(=O)(=O)Nc2ccc3c(c2)CC(=O)N([C@H](C)CO)C[C@@H](C)[C@@H](CN(C)S(=O)(=O)c2cccs2)O3)cc1`, the AC50 in [9] was 2.5 µM (active). On to `C[C@H]1CN([C@@H](C)CO)C(=O)c2cccc(NC(=O)c3ccncc3)c2O[C@H]1CN(C)Cc1ccc(Cl)c(Cl)c1`, for which the half-maximal activity concentration (AC50) in experiment [9] was 0.08 µM (active). As for `CC(=O)Nc1cc(-c2ccc(N3CCN(C)CC3)cc2)cn2c(-c3cccc(C(=O)N(C)C)c3)cnc12`, the AC50 in experiment [3] was 8.58 µM (active).
